We go through one compound from PubChem BioAssay AID1671325.

By IC50 is commonly meant the concentration that inhibits the measured activity by half.

Each structure is given as a SMILES string.

For the assay, the target named is Mitogen-activated protein kinase 11 (Homo sapiens) (UniProt Q15759). Description: PubChem AID 1671325. The settings on record: Z'-LYTE FRET kinase activity, recombinant MAPK11.
Chain of Mitogen-activated protein kinase 11 (Homo sapiens) (Q15759 whole entry, looked up): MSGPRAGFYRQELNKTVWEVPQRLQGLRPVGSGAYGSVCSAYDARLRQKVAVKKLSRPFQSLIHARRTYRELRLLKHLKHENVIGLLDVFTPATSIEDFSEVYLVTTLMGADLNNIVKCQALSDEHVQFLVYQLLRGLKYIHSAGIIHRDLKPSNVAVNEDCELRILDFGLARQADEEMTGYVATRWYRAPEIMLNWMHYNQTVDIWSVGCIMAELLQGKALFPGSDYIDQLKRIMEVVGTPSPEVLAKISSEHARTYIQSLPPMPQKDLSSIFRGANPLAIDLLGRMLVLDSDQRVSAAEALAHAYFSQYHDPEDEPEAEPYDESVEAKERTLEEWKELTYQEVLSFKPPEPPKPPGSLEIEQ

For the compound `CC(C)(C)n1nc(-c2ccc(Cl)cc2)c2c(N)ncnc21`, the IC50 was 3.53 µM.
